The structures appear in SMILES notation.

This assay concerns the target Beta-galactosidase (Escherichia coli, UniProt Q8VNN2). Briefly: PubChem AID 485352.

Beta-galactosidase, sequence (Q8VNN2 whole entry): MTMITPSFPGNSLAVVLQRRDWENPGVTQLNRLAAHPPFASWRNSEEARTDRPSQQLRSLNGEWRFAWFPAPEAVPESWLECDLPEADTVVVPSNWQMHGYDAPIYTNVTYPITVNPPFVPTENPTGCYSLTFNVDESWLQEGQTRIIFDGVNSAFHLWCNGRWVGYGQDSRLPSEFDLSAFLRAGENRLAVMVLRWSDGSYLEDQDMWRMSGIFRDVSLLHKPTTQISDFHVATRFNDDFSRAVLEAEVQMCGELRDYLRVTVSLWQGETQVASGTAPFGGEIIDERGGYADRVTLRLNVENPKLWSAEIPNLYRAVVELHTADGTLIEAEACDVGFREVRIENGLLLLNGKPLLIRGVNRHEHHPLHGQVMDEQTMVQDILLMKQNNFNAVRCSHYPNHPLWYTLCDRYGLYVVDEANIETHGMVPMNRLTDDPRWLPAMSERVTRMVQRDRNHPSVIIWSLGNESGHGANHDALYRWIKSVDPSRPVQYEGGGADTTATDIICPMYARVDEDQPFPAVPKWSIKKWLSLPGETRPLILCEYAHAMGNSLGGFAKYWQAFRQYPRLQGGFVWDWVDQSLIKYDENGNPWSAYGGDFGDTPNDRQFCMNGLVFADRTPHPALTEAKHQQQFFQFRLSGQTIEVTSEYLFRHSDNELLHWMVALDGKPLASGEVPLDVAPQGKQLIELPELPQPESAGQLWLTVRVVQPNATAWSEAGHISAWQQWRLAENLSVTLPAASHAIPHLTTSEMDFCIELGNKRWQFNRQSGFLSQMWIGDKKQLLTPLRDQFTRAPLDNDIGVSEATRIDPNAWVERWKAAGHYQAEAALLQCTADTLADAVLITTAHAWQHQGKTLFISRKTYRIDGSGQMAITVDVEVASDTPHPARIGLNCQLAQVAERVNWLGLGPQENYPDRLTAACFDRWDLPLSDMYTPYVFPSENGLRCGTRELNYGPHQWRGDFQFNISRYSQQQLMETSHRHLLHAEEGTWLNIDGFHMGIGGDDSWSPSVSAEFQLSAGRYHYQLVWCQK

On to `CCOC(=O)C1C(C)=NC2=C(C(=O)CC(c3cccs3)C2)C1c1cccs1` (stereo unspecified) [2-Methyl-5-oxo-4,7-di-thiophen-2-yl-1,4,5,6,7,8-hexahydro-quinoline-3-carboxylic acid ethyl ester], for which the concentration for a half-maximal effect (EC50) was 39.3 µM.

A word on the EC50: it is the concentration needed to bring the measured effect to its halfway point. A lower EC50 goes with an effect from little substance.

Values taken from BindingDB's records for doi:10.7270/Q2SN07DK (Burnham Center For Chemical Genomics, 2010).
